In patent US9302999B2, “Substituted triazoles as herbicides” (E. I. DU PONT DE NEMOURS AND COMPANY, priority 2012, dated 2016):

Columns and labels:
Type in all cases: in vivo
[1] = test system: sedge, umbrella (small-flower umbrella sedge Cyperus difformis); assay: Test B flooded paddy: sedge, umbrella; conditions: Flood, applied to paddy water at 2-leaf stage, visually evaluated after 13 to 15 days
In short: (§1)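 Greenhouse assay lasting 13 to 15 days. Treatment was into water flooding pots 3 cm deep, at the 2-leaf stage, with that level sustained afterwards. Scores compare treated with control plants visually, 100 denoting complete control and 0 no effect; a dash marks no test result.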

corn (Zea mays) = assay: Test A pre-/postemergence: corn
In short: (§2)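 Each species received preemergence soil-directed spraying and, at the same time, postemergence treatment of seedlings 2–10 cm tall. Formulation: non-phytotoxic solvent mixture including surfactant. Response assessed visually about ten days on, relative to untreated controls, 0–100 scale.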

[2] = test system: ducksalad (Heteranthera limosa); assay: Test B flooded paddy: ducksalad; conditions: Flood, applied to paddy water at 2-leaf stage, visually evaluated after 13 to 15 days
In short: as §1

[3] = test system: barnyardgrass (Echinochloa crus-galli); assay: Test B flooded paddy: barnyardgrass; conditions: Flood, applied to paddy water at 2-leaf stage, visually evaluated after 13 to 15 days
In short: as §1

[4] = test system: velvetleaf (Abutilon theophrasti); assay: Test A pre-/postemergence: velvetleaf
In short: as §2

[5] = test system: barnyardgrass (Echinochloa crus-galli); assay: Test A pre-/postemergence: barnyardgrass
In short: as §2

[6] = test system: morningglory (Ipomoea spp.); assay: Test A pre-/postemergence: morningglory
In short: as §2

[7] = test system: wheat (Triticum aestivum); assay: Test A pre-/postemergence: wheat
In short: as §2

[8] = test system: foxtail, giant (giant foxtail, Setaria faberii); assay: Test A pre-/postemergence: foxtail, giant
In short: as §2

[9] = test system: crabgrass, large (large crabgrass, Digitaria sanguinalis); assay: Test A pre-/postemergence: crabgrass, large
In short: as §2

rice (Oryza sativa) = assay: Test B flooded paddy: rice; conditions: Flood, applied to paddy water at 2-leaf stage, visually evaluated after 13 to 15 days
In short: as §1

[10] = test system: pigweed (Amaranthus retroflexus); assay: Test A pre-/postemergence: pigweed
In short: as §2

[11] = Postemergence, 125 g ai/ha, 0 to 100 scale, 0 is no effect, 100 is complete control
[12] = Postemergence, 500 g ai/ha, 0 to 100 scale, 0 is no effect, 100 is complete control
[13] = Preemergence, 125 g ai/ha, 0 to 100 scale where 0 is no effect and 100 is complete control
[14] = Preemergence, 500 g ai/ha, 0 to 100 scale (0 no effect, 100 complete control)

Compound | Plant response rating, Corn (corn (Zea mays); [11]) | Corn plant response rating (corn (Zea mays); [12]) | Plant response rating, Corn (corn (Zea mays); [13]) | Plant response rating, Corn (corn (Zea mays); [14]) | Plant response rating, Velvetleaf [4, 11] | Velvetleaf plant response rating [4, 12] | Plant response rating, Velvetleaf [4, 13] | Plant response rating, Velvetleaf [4, 14] | Plant response rating, Barnyardgrass [5, 11] | Barnyardgrass plant response rating [5, 12] | Plant response rating, Barnyardgrass [5, 13] | Plant response rating, Barnyardgrass [5, 14] | Plant response rating, Morningglory [6, 11] | Morningglory plant response rating [6, 12] | Plant response rating, Morningglory [6, 13] | Plant response rating, Morningglory [6, 14] | Plant response rating, Wheat [7, 11] | Wheat plant response rating [7, 12] | Plant response rating, Wheat [7, 13] | Plant response rating, Wheat [7, 14] | also measured
CCc1nn(-c2ccc(F)cc2F)nc1Oc1ccnc(C(F)F)c1 [Compound 181] | 0 | 10 | 0 | 0 | 30 | 70 | 0 | 0 | 0 | 30 | 0 | 20 | 90 | 90 | 0 | 10 | 0 | 20 | 0 | 0 | Plant response rating, Sedge, Umbrella (0 to 100 scale, 0 is no effect, 100 is complete control) ([1]; 125 g ai/ha): 0; Plant response rating, Ducksalad (0 to 100 scale, 0 is no effect, 100 is complete control) ([2]; 125 g ai/ha): 0; Plant response rating, Barnyardgrass (0 to 100 scale, 0 is no effect, 100 is complete control) ([3]; 125 g ai/ha): 0; Plant response rating, Foxtail, Giant [8, 11]: 30; Foxtail, Giant plant response rating [8, 12]: 80; Plant response rating, Foxtail, Giant [8, 13]: 10; Plant response rating, Foxtail, Giant [8, 14]: 80; Plant response rating, Crabgrass, Large [9, 11]: 50; Crabgrass, Large plant response rating [9, 12]: 50; Plant response rating, Crabgrass, Large [9, 13]: 10; Plant response rating, Crabgrass, Large [9, 14]: 80; Plant response rating, Rice (0 to 100 scale, 0 is no effect, 100 is complete control) (rice (Oryza sativa); 125 g ai/ha): 20; Plant response rating, Pigweed [10, 11]: 90; Pigweed plant response rating [10, 12]: 100; Plant response rating, Pigweed [10, 13]: 60; Plant response rating, Pigweed [10, 14]: 90
CCCCc1nn(-c2ccc(C(F)(F)F)cc2)nc1Oc1ccnc(C(F)(F)F)c1 [Compound 184] | 10 | 20 | 0 | 0 | 40 | 90 | 0 | 30 | 10 | 30 | 0 | 50 | 30 | 100 | 0 | 10 | 10 | 20 | 0 | 0 | Plant response rating, Sedge, Umbrella (0 to 100 scale, 0 is no effect, 100 is complete control) ([1]; 250 g ai/ha): 60; Plant response rating, Ducksalad (0 to 100 scale, 0 is no effect, 100 is complete control) ([2]; 250 g ai/ha): 0; Plant response rating, Barnyardgrass (0 to 100 scale, 0 is no effect, 100 is complete control) ([3]; 250 g ai/ha): 25; Plant response rating, Foxtail, Giant [8, 11]: 30; Foxtail, Giant plant response rating [8, 12]: 80; Plant response rating, Foxtail, Giant [8, 13]: 70; Plant response rating, Foxtail, Giant [8, 14]: 90; Plant response rating, Crabgrass, Large [9, 11]: 50; Crabgrass, Large plant response rating [9, 12]: 90; Plant response rating, Crabgrass, Large [9, 13]: 70; Plant response rating, Crabgrass, Large [9, 14]: 100; Plant response rating, Rice (0 to 100 scale, 0 is no effect, 100 is complete control) (rice (Oryza sativa); 250 g ai/ha): 25; Plant response rating, Pigweed [10, 11]: 100; Pigweed plant response rating [10, 12]: 100; Plant response rating, Pigweed [10, 13]: 90; Plant response rating, Pigweed [10, 14]: 100
CCOc1nn(-c2ccc(F)cc2F)nc1Cc1ccnc(C(F)(F)F)c1 [Compound 190] | 60 | 90 | 30 | 90 | 100 | 100 | 40 | 100 | 100 | 100 | 100 | 100 | 100 | 100 | 80 | 80 | 70 | 100 | 60 | 80 | Plant response rating, Sedge, Umbrella (0 to 100 scale, 0 is no effect, 100 is complete control) ([1]; 125 g ai/ha): 95; Plant response rating, Ducksalad (0 to 100 scale, 0 is no effect, 100 is complete control) ([2]; 125 g ai/ha): 70; Plant response rating, Barnyardgrass (0 to 100 scale, 0 is no effect, 100 is complete control) ([3]; 125 g ai/ha): 70; Plant response rating, Foxtail, Giant [8, 11]: 100; Foxtail, Giant plant response rating [8, 12]: 100; Plant response rating, Foxtail, Giant [8, 13]: 100; Plant response rating, Foxtail, Giant [8, 14]: 100; Plant response rating, Crabgrass, Large [9, 11]: 100; Crabgrass, Large plant response rating [9, 12]: 100; Plant response rating, Crabgrass, Large [9, 13]: 100; Plant response rating, Crabgrass, Large [9, 14]: 100; Plant response rating, Rice (0 to 100 scale, 0 is no effect, 100 is complete control) (rice (Oryza sativa); 125 g ai/ha): 50; Plant response rating, Pigweed [10, 11]: 100; Pigweed plant response rating [10, 12]: 100; Plant response rating, Pigweed [10, 13]: 100; Plant response rating, Pigweed [10, 14]: 100
CCCOc1nn(-c2ccc(C(F)(F)F)cc2)nc1Cc1ccnc(C(F)(F)F)c1 [Compound 191] | 30 | 80 | 20 | 60 | 80 | 100 | 30 | 80 | 60 | 100 | 90 | 100 | 100 | 100 | 20 | 30 | 70 | 80 | 40 | 70 | Plant response rating, Sedge, Umbrella (0 to 100 scale, 0 is no effect, 100 is complete control) ([1]; 125 g ai/ha): 50; Plant response rating, Ducksalad (0 to 100 scale, 0 is no effect, 100 is complete control) ([2]; 125 g ai/ha): 20; Plant response rating, Barnyardgrass (0 to 100 scale, 0 is no effect, 100 is complete control) ([3]; 125 g ai/ha): 50; Plant response rating, Foxtail, Giant [8, 11]: 90; Foxtail, Giant plant response rating [8, 12]: 100; Plant response rating, Foxtail, Giant [8, 13]: 100; Plant response rating, Foxtail, Giant [8, 14]: 100; Plant response rating, Crabgrass, Large [9, 11]: 90; Crabgrass, Large plant response rating [9, 12]: 100; Plant response rating, Crabgrass, Large [9, 13]: 100; Plant response rating, Crabgrass, Large [9, 14]: 100; Plant response rating, Rice (0 to 100 scale, 0 is no effect, 100 is complete control) (rice (Oryza sativa); 125 g ai/ha): 50; Plant response rating, Pigweed [10, 11]: 100; Pigweed plant response rating [10, 12]: 100; Plant response rating, Pigweed [10, 13]: 100; Plant response rating, Pigweed [10, 14]: 100
CC(C)Oc1nn(-c2ccc(C(F)(F)F)cc2)nc1Cc1ccnc(C(F)(F)F)c1 [Compound 192] | 10 | 30 | 0 | 0 | 20 | 100 | 0 | 0 | 0 | 20 | 0 | 0 | 30 | 70 | 0 | 10 | 0 | 10 | 0 | 0 | Plant response rating, Sedge, Umbrella (0 to 100 scale, 0 is no effect, 100 is complete control) ([1]; 250 g ai/ha): 0; Plant response rating, Ducksalad (0 to 100 scale, 0 is no effect, 100 is complete control) ([2]; 250 g ai/ha): 0; Plant response rating, Barnyardgrass (0 to 100 scale, 0 is no effect, 100 is complete control) ([3]; 250 g ai/ha): 0; Plant response rating, Foxtail, Giant [8, 11]: 10; Foxtail, Giant plant response rating [8, 12]: 20; Plant response rating, Foxtail, Giant [8, 13]: 0; Plant response rating, Foxtail, Giant [8, 14]: 80; Plant response rating, Crabgrass, Large [9, 11]: 10; Crabgrass, Large plant response rating [9, 12]: 30; Plant response rating, Crabgrass, Large [9, 13]: 0; Plant response rating, Crabgrass, Large [9, 14]: 70; Plant response rating, Rice (0 to 100 scale, 0 is no effect, 100 is complete control) (rice (Oryza sativa); 250 g ai/ha): 0; Plant response rating, Pigweed [10, 11]: 40; Pigweed plant response rating [10, 12]: 100; Plant response rating, Pigweed [10, 13]: 10; Plant response rating, Pigweed [10, 14]: 40
